Source: the NIST ThermoML archive (doi:10.1021/acs.jced.5b00662)
± gives the expanded uncertainty stated by the source.

Assay: xn = mol fraction of the nth substance listed
Conditions: 100 kPa, Liquid; for speed of sound: Sing-around technique in a fixed-path interferometer; for mass density: Vibrating tube method

CCOCCO [2-ethoxyethan-1-ol] + O
Conditions	mass density, x1 = 0.9426 [kg/m3]	mass density, x1 = 0.949 [kg/m3]	mass density, x1 = 0.9549 [kg/m3]	mass density, x1 = 0.9567 [kg/m3]	mass density, x1 = 0.967 [kg/m3]	speed of sound, x1 = 0.9426 [m/s]	speed of sound, x1 = 0.949 [m/s]	speed of sound, x1 = 0.9549 [m/s]	speed of sound, x1 = 0.9567 [m/s]	speed of sound, x1 = 0.967 [m/s]
283.15 K	943.675 ± 2	943.444 ± 2	943.15 ± 2	943.112 ± 2	942.599 ± 2	1364 ± 1.6	1365.8 ± 1.6	1366.2 ± 1.6	1366.8 ± 1.6	1361.6 ± 1.8
288.15 K	939.208 ± 2	938.975 ± 2	938.68 ± 2	938.638 ± 2	938.12 ± 2	1346.2 ± 1.6	1347.5 ± 1.5	1347.9 ± 1.6	1348.4 ± 1.6	1343.5 ± 1.8
293.15 K	934.713 ± 2	934.479 ± 2	934.183 ± 2	934.14 ± 2	933.622 ± 2	1328.3 ± 1.5	1329.2 ± 1.5	1329.6 ± 1.6	1330.2 ± 1.6	1325.6 ± 1.8
298.15 K	930.19 ± 2	929.953 ± 2	929.657 ± 2	929.614 ± 2	929.099 ± 2	1310.5 ± 1.5	1311.1 ± 1.5	1311.3 ± 1.6	1311.8 ± 1.6	1307.8 ± 1.7
303.15 K	925.638 ± 2	925.399 ± 2	925.102 ± 2	925.055 ± 2	924.54 ± 2	1292.8 ± 1.5	1293 ± 1.5	1293.2 ± 1.6	1292.6 ± 1.6	1289.8 ± 1.6
308.15 K	921.054 ± 2	920.815 ± 2	920.517 ± 2	920.467 ± 2	919.951 ± 2	1275 ± 1.5	1275.3 ± 1.5	1275.2 ± 1.6	1274.3 ± 1.6	1272 ± 1.6
313.15 K	916.435 ± 2	916.194 ± 2	915.892 ± 2	915.843 ± 2	915.328 ± 2	1257.4 ± 1.5	1257.6 ± 1.5	1256.6 ± 1.6	1256.1 ± 1.6	1254.3 ± 1.6
323.15 K	907.087 ± 2	906.839 ± 2	906.54 ± 2	906.493 ± 2	905.969 ± 2	1222.2 ± 1.5	1222.2 ± 1.5	1220.3 ± 1.5	1220.2 ± 1.5	1218.9 ± 1.5
333.15 K	897.58 ± 2	897.329 ± 2	897.036 ± 2	896.985 ± 2	896.461 ± 2	1187.1 ± 1.5	1186.9 ± 1.5	1185.1 ± 1.5	1184.9 ± 1.5	1183.7 ± 1.5
343.15 K	887.911 ± 2	887.628 ± 2	887.337 ± 2	887.297 ± 2	886.774 ± 2	1152 ± 1.5	1151.1 ± 1.5	1150.1 ± 1.5	1149.8 ± 1.5	1148.6 ± 1.5
